This data set deals with male Swiss-Webster mice. Briefly: intraperitoneal toxicity observation in mice. It counts as in vivo. The following applies: 50 mg./kg. intraperitoneal in 10% w/v dimethylsulphoxide in saline; observed four hours and checked 24 hours after dosing.

For `CNC(=C[N+](=O)[O-])NCCCCc1csc(N=C(N)NCC(F)(F)F)n1` [Example 9], the toxic symptoms result was “No toxic symptoms”. To `CNC(=NS(C)(=O)=O)NCCCCc1csc(NC(N)=NCC(F)(F)F)n1` [Example 11, 2-[2-(2,2,2-trifluoroethyl)guanidino]-4-[4-(2-methylsulphonyl-3-methylguanidino)butyl]thiazole] belongs “No toxic symptoms”.
